Assay type in all cases: in vivo, Caenorhabditis elegans
For one test, the system named is C. elegans. Briefly: Adult life span after transient (first 24 h) Tm or 2DG supplementation. The procedure: Gravid adult worms, initially grown on E. coli OP50 were bleached and eggs were hatched on different RNAi plates. On reaching adulthood, 50-60 young adult worms were transferred to the similar RNAi plates in triplicates and overlaid with Fluoro-deoxyuridine (FudR) to final concentration of 0.1 mg/ml of agar (2). At the 7th Day of adulthood, sick, sluggish and slow dwelling worms were removed from the life span population and the remaining were considered as the number of subjects ‘N’. Following this, number of dead worms were scored every alternate day and plotted as % survival against the number of days. Statistical analysis for survival was conducted using Mantel-Cox Log Rank test using Oasis software. Average life span was also determined using the same method and represented as Mean life span±Standard Error Mean (S.E.M).
Overnight grown bacterial culture expressing Control or test RNAi were re-inoculated in 200 ml fresh LB media and grown at 37° C. until OD600 reached 0.5-0.6. The culture was divided in two parts (A and B) in a ratio of 1:3 and cells are pelleted separately using a centrifuge (4810R, Eppendorf, Germany) at 5000 r.p.m for 10 minutes at 4° C. Pellet from part B (150 ml) of the culture was resuspended in 1×M9 buffer containing 100 μg/ml ampicillin and 1 mM IPTG to 1/10th of its initial culture volume (for 150 ml culture, 15 ml of resuspension buffer was used) and 350 μl was seeded onto each RNAi plate and left for drying at room temperature for 24 hours.
Gravid adult worms initially grown on E. coli OP50 bacteria were bleached and eggs were re-suspended in 100-200 ul of 1×M9 buffer and standardized for the number of eggs present in a particular volume.
Entire composition of cocktail (total volume 1 ml) is mentioned as follows:
Eggs were left on rotation in this cocktail at a slow speed for 24 hrs. […] They were allowed to grow till adulthood when 100 worms belonging to each treatment regime were transferred onto FuDR containing RNAi plates and life span was scored as mentioned above. iUPR^ER efficiency was also measured on Day 2 of adulthood, as mentioned previously.
Since transient up-regulation of UPR^ER was observed, experiments were conducted to see its causal role in life span extension, as observed during DR. […] After the pharmaceutical reagent was washed off, the worms were grown on solid NGM media and post-adult life span was recorded. […] This observation supports the role of hormesis, triggered by an early ER stress as a mechanism of DR-mediated life span enhancement, in the models that were tested.

For test [1], the system named is Punc-54:polyQ40:yfp worms. Kind of test: PolyQ aggregate number in adult worms after transient Tm exposure. The text has this:
In order to evaluate the role of DR in augmenting the ERAD and its physiological consequences, a reporter was used that expresses a stretch of 40 glutamines (Q40) tagged with a yellow fluorescent protein in C. elegans muscle. This reporter strain was crossed with eat-2(ad1116) mutant worms to generate worms carrying both the reporter transgene and the eat-2 mutation (hereafter, referred to as eat-2;PolyQ). It was observed that incorporating eat-2 mutation led to 60-80% suppression in the number of aggregates at all age points, supporting the earlier observation of alleviation in the age-associated increase in PolyQ aggregation during DR (FIG. 6A). […] Since ire-1 was a requirement for DR-mediated longevity, it was tested whether this beneficial effect conferred under DR is also dependent on this gene.
It was reported that an atypical up-regulation of UPR^ER in larvae contributes towards increased life span during DR. It was shown that pharmaceutically mimicking the transient UPR^ER up-regulation during early larval life augmented the iUPR^ER efficiency with age and increased life span. To determine whether such hormetic intervention can protect against the age-related proteostasis collapse, WT worms were exposed with a range of concentrations of Tm only during the start of larval development, as mentioned before. […]

The test system of the next test is Phsp-4:gfp(zcIs4) worms. Kind of test: Induced UPR^ER (iUPR^ER) efficiency, Phsp-4:gfp fluorescence after acute Tm challenge in adulthood. Particulars: for iUPR^ER at adulthood after Tm hormesis: acute 5 mg/mL tunicamycin treatment, day 2 of adulthood. The procedure:
Transgenic Phsp-4:gfp(zcIs4) and eat-2(ad1116);Phsp-4:gfp(zcIs4) were bleached and eggs were hatched on control RNAi. Worms were allowed to grow till adulthood and then transferred onto plates overlaid with FuDR to a final concentration of 0.1 mg/ml. […] Since Tm is dissolved in 0.05% DMSO, it was used as vehicle control. After 6 hours, 50 worms from each treatment were mounted onto 2% agarose slides and visualized using Axio-Imager M2 epifluorescent microscope with a GFP filter set (Carl Zeiss, Germany) Fluorescence of ≥20 Tm-treated and untreated worms was quantified using NIH ImageJ software. Average fluorescence of treated worms was normalized to untreated worms and plotted as normalized GFP fold induction at different days of adulthood. Similar procedure was followed to compare iUPR^ER efficiency of Phsp-4:gfp(zcIs4) on control and drl-1 RNAi on different days of adulthood.
Eggs were left on rotation in this cocktail at a slow speed for 24 hrs. Following this, the hatched L1 larvae were washed 3-4 times with 1×M9 buffer to remove traces of tunicamycin and added onto seeded control RNAi or test RNAi plates containing no reagent. They were allowed to grow till adulthood when 100 worms belonging to each treatment regime were transferred onto FuDR containing RNAi plates and life span was scored as mentioned above. iUPR^ER efficiency was also measured on Day 2 of adulthood, as mentioned previously.
Since it was observed that transient ER stress using Tm at early post-embryonic stage increased life span, it was tested whether this treatment could also lead to a better iUPR^ER efficiency with age. […] Importantly, hormetic up-regulation of the ER stress response during early developmental life leads to this increased ER efficiency contributing towards enhanced longevity during DR.

The text below walks through data of patent US20220008449A1, “A METHOD OF MIMICKING BENEFITS OF DIETARY RESTRICTION BY TRANSIENTLY UPREGULATING ER STRESS RESPONSE” (NATIONAL INSTITUTE OF IMMUNOLOGY, priority 2018, published 2022).

Entries after “also recorded” stand apart in the source; their conditions may differ.

Turning to `O=CC[C@@H](O)[C@H](O)[C@H](O)CO` [2-DG, 2-deoxy glucose], the “Effect on life span” value was “increased; also recorded: significantly increasing life span” with C. elegans (WT, transient 2DG 0.0625 mM first 24 hours) and “failed to increase life span; also recorded: ire-1-dependent manner” with C. elegans (ire-1(v33), transient 2DG treatment). Moreover, the “Life span Mean ± SEM” value is on record as 21.21 ± 0.37 days in the test with C. elegans (Wild type, 2-DG 0.0625 mM for first 24 hours) and 20.07 ± 0.26 days with C. elegans (ire-1(v33), 2-DG 0.0625 mM for first 24 hours). Besides, the “Life span % Change” value with C. elegans (Wild type, 2-DG 0.0625 vs 0 mM) is recorded as 11.69%; in the test on C. elegans (ire-1(v33), 2-DG 0.0625 vs 0 mM), −0.64%.
As for Tunicamycin [Tm], the “Number of polyQ aggregates” value in test [1] (Punc-54:polyQ40:yfp on control RNAi, 0.125 μg/ml and 0.25 μg/ml Tm during larval development, day 2 and day 3 of adulthood) is “suppression; also recorded: significant reduction in the number of aggregates”. Moreover, the “Number of polyQ puncta” value in test [1] (ire-1(v33);Q40:yfp worms treated with hormetic dose of Tm (0.125 μg/ml)) is on record as “significantly higher puncta at all age points”. Moreover, the “Effect on life span” value is on record as “sufficient to extend lifespan; also recorded: significant extension of life span” in the test with C. elegans (WT larvae, 0.125 μg/ml Tm during first 24 hours) and “cannot further increase lifespan” in the test on C. elegans (eat-2(ad1116), Tm supplementation). The “Dependence of Tm hormesis life span extension on PHA-4” value in the test on C. elegans (WT on control or pha-4 RNAi, Tm 0.125 μg/mL initial 24 h) is “suppressed; also recorded: dependent on PHA-4”. Moreover, in the test on C. elegans (WT vs ire-1(v33), Tm 0.125 μg/ml initial 24 hours), the “Dependence of Tm life span effect on ire-1” value was “completely dependent on ire-1”. Moreover, the “Life span Mean ± SEM” value turned out to be 21.58 ± 0.36 days in the test with C. elegans (Wild type (for eat-2 hormesis expt), Tm 0.125 μg/ml for first 24 hours); 22.02 ± 0.30 days in the test on C. elegans (Wild type (for ire-1 hormesis expt), Tm 0.125 μg/ml for first 24 hours); 21.73 ± 0.28 days in the test with C. elegans (Wild type, Tm 0.125 μg/ml for first 24 hours); 25.32 ± 0.45 days in the test with C. elegans (eat-2 (ad1116), Tm 0.125 μg/ml for first 24 hours); 18.64 ± 0.21 days with C. elegans (ire-1(v33), Tm 0.125 μg/ml for first 24 hours). For the same compound, the “Life span % Change” value was 15.83% with C. elegans (Wild type (for eat-2 hormesis expt), Tm 0.125 vs 0 μg/ml); 18.83% in the test on C. elegans (Wild type (for ire-1 hormesis expt), Tm 0.125 vs 0 μg/ml); 17.78% in the test with C. elegans (Wild type, Tm 0.125 vs 0 μg/ml); −10.47% in the test on C. elegans (eat-2 (ad1116), Tm 0.125 vs 0 μg/ml); −0.85% in the test on C. elegans (ire-1(v33), Tm 0.125 vs 0 μg/ml). For the same compound, the “iUPR^ER at adulthood after Tm hormesis” value is reported as “even higher iUPR^ER” in the test on Phsp-4:gfp(zcIs4) worms (control RNAi worms) and “not able to increase the iUPR^ER response” with Phsp-4:gfp(zcIs4) worms (pha-4 RNAi worms). The “iUPR^ER efficiency at day 2 of adulthood” value in the test on Phsp-4:gfp(zcIs4) worms (transient Tm 24 hours post-bleaching, challenge Tm 10 μg/ml for 6 hours on day 2) is given as “increases iUPR^ER efficiency; also recorded: higher iUPR^ER efficiency”.
